What follows are molecules tested against T1, endothelial lipase (EL) (Homo sapiens, UniProt Q9Y5X9) (assay: Endothelial lipase (EL) enzymatic assay with fluorescent substrate A10070 in DMPG vesicles). Settings: conditioned media from HT-1080 cells overexpressing endogenous EL; 20 min preincubation at 37° C.; read-out: HLE_EL_CRC IC50.
T1 construct: Conditioned media obtained from HT-1080 cells, which were transformed by RAGE technology (Athersys) to overexpress endogenous EL; endogenous in cells; conditioned medium used as the enzyme source
T1 sequence (Q9Y5X9 21-500): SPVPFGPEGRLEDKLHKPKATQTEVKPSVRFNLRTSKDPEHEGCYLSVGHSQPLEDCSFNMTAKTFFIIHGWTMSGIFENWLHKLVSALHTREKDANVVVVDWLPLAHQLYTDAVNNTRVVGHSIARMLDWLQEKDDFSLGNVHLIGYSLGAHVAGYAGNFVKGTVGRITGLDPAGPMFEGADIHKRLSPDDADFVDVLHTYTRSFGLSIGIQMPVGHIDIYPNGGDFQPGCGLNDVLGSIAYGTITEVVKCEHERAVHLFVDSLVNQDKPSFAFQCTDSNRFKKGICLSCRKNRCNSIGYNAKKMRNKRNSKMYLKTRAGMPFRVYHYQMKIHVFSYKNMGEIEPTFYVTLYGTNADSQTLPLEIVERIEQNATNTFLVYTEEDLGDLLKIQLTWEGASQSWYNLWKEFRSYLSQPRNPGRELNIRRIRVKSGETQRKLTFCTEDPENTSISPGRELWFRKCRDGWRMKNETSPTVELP
Type: biochemical
Protocol: Endothelial lipase activity was measured using a fluorescent substrate, A10070, (Invitrogen, CA) doped into an artificial vesicle containing DMPG (Avanti Polar Lipids) as the excipient. Vesicles were prepared by combining 285 uL of 1 mM DMPG in a 1:1 mixture of MeOH and CHCl3 with 15 uL of 1 mM A10070 in a 1:1 mixture of MeOH and CHCl3. The mixture was dried under nitrogen and resuspended in 150 uL of 50 mM HEPES pH 8.0 buffer containing 100 mM NaCl and 0.2 mM EDTA. The sample was allowed to sit at rt for 15 min and then was sonicated 3×4 mins on ice with a Branson Sonicator using duty cycle 1. This preparation provides vesicles with a mole fraction of 0.05 for the FRET substrate.
The enzymatic assay was measured using white, opaque 96-well half area plates. Each well contained 60 uL of assay buffer (50 mM HEPES pH 8.0, 50 mM NaCl and 1 mM CaCl2) and 2 ul of a DMSO solution containing compound of interest. Conditioned media obtained from HT-1080 cells, which were transformed by RAGE technology (Athersys) to overexpress endogenous EL, was added and the reaction was allowed to incubate for 20 min at 37° C. with gentle agitation. The reaction was started by the addition of 20 uL of a 1:4 dilution of vesicles. The final total reaction volume was 100 uL. The reaction rates were measured on a Gemini plate reader with an excitation wavelength of 488 nm and a emission of 530 nm. Readings were taken every 20 seconds for 10 min with agitation between each reading. The slope of the linear portion of the readout was used to calculate the rate of the reaction.

IC50 [nM] | Compound
2200 | Cn1ccc(C(=O)NCCc2ccc(C(F)(F)F)cc2)c(O)c1=O [Example 136, 3-hydroxy-1-methyl-2-oxo-N-(4-(trifluoromethyl)phenethyl)-1,2-dihydropyridine-4-carboxamide]
1660 | CC(CNC(=O)c1ccn(C)c(=O)c1O)Oc1ccc(F)cc1 (centres unmarked) [Example 137, N-(2-(4-fluorophenoxy)propyl)-3-hydroxy-1-methyl-2-oxo-1,2-dihydropyridine-4-carboxamide]
216 | Cn1ccc(C(=O)NCCCOc2cccc(F)c2)c(O)c1=O [Example 142, N-(3-(3-fluorophenoxy)propyl)-3-hydroxy-1-methyl-2-oxo-1,2-dihydropyridine-4-carboxamide]
172 | COc1ccc(CNc2c(C(=O)NCCCc3ccc(Cl)c(Cl)c3)ccn(C)c2=O)cc1 [Example 186, (3-(3,4-dichlorophenyl)propyl)-3-(4-methoxybenzylamino)-1-methyl-2-oxo-1,2-dihydropyridine-4-carboxamide]
200 | CC(C)CNc1c(C(=O)NCCCc2ccc(Cl)c(Cl)c2)ccn(C)c1=O [Example 188, N-(3-(3,4-dichlorophenyl)propyl)-3-(isobutylamino)-1-methyl-2-oxo-1,2-dihydropyridine-4-carboxamide]
210 | CC(C)OCCNc1c(C(=O)NCCCc2ccc(Cl)c(Cl)c2)ccn(C)c1=O [Example 189, N-(3-(3,4-dichlorophenyl)propyl)-3-(2-isopropoxyethylamino)-1-methyl-2-oxo-1,2-dihydropyridine-4-carboxamide]
210 | Cn1ccc(C(=O)NCCCOc2ccc(Cl)c(Cl)c2)c(O)c1=O [Example 194, N-(3-(3,4-dichlorophenoxy)propyl)-3-hydroxy-1-methyl-2-oxo-1,2-dihydropyridine-4-carboxamide]
182 | COC(=O)c1cccc(OCCCNC(=O)c2ccn(C)c(=O)c2O)c1 [Example 198, methyl 3-(3-(3-hydroxy-1-methyl-2-oxo-1,2-dihydropyridine-4-carboxamido)propoxy)benzoate]

From patent publication US8933235B2, “Pyridinedione carboxamide inhibitors of endothelial lipase” (Bristol-Myers Squibb Company, priority 2011, dated 2015)
